# Source: US20220143183A1, “PHOTOSWITCHABLE PROTACS AND SYNTHESIS AND USES THEREOF” (New York University, priority 2019, published 2022)
# “Also recorded” adds a separate entry of the source.
# Legend:
# [1] = system: BRD2-4; assay: Western blot of BET proteins in RS4;11 cells, results stated for BRD2-4 together; type: cell-based, human
# Method: Next, the light dependence of targeted protein degradation was analyzed in RS4;11 cells by western blot analysis of the BET proteins BRD2-4 (FIG. 5). To this end, cells were treated with increasing concentrations of our lead compound, PHOTAC-I-3, for 4 h and pulse-irradiated with 390 nm light (100 ms every 10 s). […] The cereblon-dependent degradation was confirmed by a competition experiment (FIG. 5E), and further validated by siRNA knockdown of cereblon (FIG. 13).
# (§1) The slight effect on c-MYC can be explained by inhibition of BRD4 with the (+)-JQ1 derivative PHOTAC-I-3 in the absence of targeted degradation.
# (§2) Cells were incubated with different concentrations of selected compounds. They were placed in a light-proof box and preirradiated for 1 min at 390 nm followed by 100 ms pulses every 10 s or were kept in the dark for 4 h.
# Cultured cells were collected by centrifugation and washed twice with cold PBS. The supernatant was removed and each cell pellet was lysed in 100 μL NP40-Cell-Lysis Buffer+0.1% SDS+1 mM PMSF+ protease inhibitor cocktail (Sigma Aldrich) for 30 min on ice, with vortexing at 10-minute intervals. Afterwards, cells were centrifuged at 13.000 rpm for 10 min at 4° C. Samples were stored on ice and the supernatant was collected for protein concentration determination using a Thermofisher Scientific Pierce™ Coomassie Plus (Bradford) Assay Kit. […]
# [2] = system: c-MYC; assay: Immunoblot of c-MYC levels in RS4;11 cells; type: cell-based, human
# Method: (§3) Photoactivatable degraders and inhibitors of BRD4, c-MYC levels were also affected.
# as §1
# Western Immunoblot Analysis. Rabbit monoclonal Antibodies for BRD4 (#13440), β-Actin (#4970) c-Myc (#5605) and Anti-rabbit IgG, HRP-linked Antibody (#7074) were purchased from Cell Signalling Technologies.
# as §2
# Cultured cells were collected by centrifugation and washed twice with cold PBS. The supernatant was removed and each cell pellet was lysed in 100 μL NP40-Cell-Lysis Buffer+0.1% SDS+1 mM PMSF+ protease inhibitor cocktail (Sigma Aldrich) for 30 min on ice, with vortexing at 10-minute intervals. Afterwards, cells were centrifuged at 13.000 rpm for 10 min at 4° C. Samples were stored on ice and the supernatant was collected for protein concentration determination using a Thermofisher Scientific Pierce™ Coomassie Plus (Bradford) Assay Kit.
# The samples were diluted each with 5 μL Laemmli sample buffer Invitrogen (NuPAGE LDS Sample Buffer 4×) and 1 μL DTT, heated at 95° C. for 5 min. […]
# [3] = biological target: BRD4 (Homo sapiens, UniProt O60885); assay: Immunoblot of BRD4 degradation in MB-MDA-468 cells; type: cell-based; design: Immunoblot analysis after treatment of MB-MDA-231 cells with PHOTAC-I-3 for 18 h at different concentrations; endogenous in cells; host or cells: MB-MDA-231 (A10) and MB-MDA-468 (A11) (so in the source); details: 18 h, 390 nm pulses vs dark
# Method: FIG. 10 depicts an immunoblot analysis of PHOTAC-I-3 A) Immunoblot analysis after treatment of MB-MDA-231 cells with PHOTAC-I-3 for 18 h at different concentrations. Cells were either irradiated with 100 ms pulses of 390 nm light every 10 s (left) or kept the dark (right). B) Immunoblot analysis after treatment of MB-MDA-468 cells with PHOTAC-I-3 for 18 h at different concentrations. Cells were either irradiated with 100 ms pulses of 390 nm light every 10 s (left) or kept the dark (right). (MWM, molecular weight marker). C) Immunoblot of BRD4 degradation in RS4;11 cells, promoted by PHOTAC-I-3 (300 nM) after 1 minute of irradiation (100 ms every 10 s), highlighting sustained degradation at the applied dosage.
# as §3
structure (smiles),measurement,setting,value
"COc1cc(/N=N/c2cccc3c2CN(C2CCC(=O)NC2=O)C3=O)cc(OC)c1OCC(=O)NCCCCNC(=O)C[C@@H]1N=C(c2ccc(Cl)cc2)c2c(sc(C)c2C)-n2c(C)nnc21 (stereo partly drawn) [PHOTAC-I-3, 2-((S)-4-(4-chlorophenyl)-2,3,9-trimethyl-6H-thieno[3,2-f][1,2,4]triazolo[4,3-a][1,4]diazepin-6-yl)-N-(4-(2-(4-((E)-(2-(2,6-dioxopiperidin-3-yl)-1-oxoisoindolin-4-yl)diazenyl)-2,6-dimethoxyphenoxy)acetamido)butyl)acetamide]",BRD2-4 levels with CRL inhibitor MLN4924,"[1]; 1 μM together with MLN4924 (2.5 μM), 390 nm irradiation",rescued BRD2-4 levels
same,"BRD levels in the dark, time course","[1]; 1 μM, in the dark",no effect on BRD levels
same,c-MYC downregulation,[2]; 390 nm pulse irradiation,more pronounced when cells were pulse-irradiated; also recorded: c-MYC downregulation over 24 hours
same,c-MYC levels,[2]; in the dark,relatively little effect on c-MYC levels
same,BRD4 degradation,[3],light-dependent degradation of BRD4
